This is an account of results in US11384060B2, “Amide compounds and use thereof” (ALPHALA CO., LTD., priority 2017, dated 2022).

One test has as its target T1, glucagon receptor (GCGR) (Homo sapiens, UniProt P47871).
T1 construct: expressed in transfected cells; host or cells: CHO-K1 cells overexpressing GCGR (membrane fractions)
Nature of the test: I125-glucagon binding assay (competition, GCGR membrane fractions). The method, then: I^125-Glucagon Binding Assay
The binding affinity of each compound was evaluated by a competition assay with I^125-glucagon. GCGR membrane fractions were obtained from GCGR overexpressed CHO-K1 cells as a stock of 1 mg/ml concentration. To evaluate the IC50 of compounds binding to GCGR, GCGR membrane fractions were treated with compounds with a serial dilution. The membrane fractions were diluted to 7.5 microgram per well in 70 microliter assay buffer contained 50 mM Tris pH 7.4 and 0.5% (w/v) bovine serum albumin and added into 96 wells plate. The membrane fractions were then mixed with 10 microliter diluted compounds. After 5 minutes pre-incubation, 20 microliter I^125 labeled glucagon (Perkin Elmer) was added into each well at the final concentration of 0.0625 nM. The assay mixtures were incubated at 25° C. for 30 minutes and then transferred onto the Millipore MultiScreen GF/B Plate coated with 0.5% (w/v) Polyethyleneimine. The filter plate was washed with wash buffer contained 50 mM Tris pH 7.4 for 2 times, 300 microliter each time. The residual isotope was detected by Hidex CHAMELEON V micro-beta counter and the IC50 value of each compound binding to GCGR was calculated with non-linear regression.

The target of test [1] is T2, glucagon receptor (GCGR) overexpressed CHO-K1 cells or human primary hepatocytes (Homo sapiens, UniProt P47871).
T2 construct: expressed in transfected cells; host or cells: GCGR overexpressed CHO-K1 cells or human primary hepatocytes (endogenous receptor)
T2 sequence (P47871 26-477): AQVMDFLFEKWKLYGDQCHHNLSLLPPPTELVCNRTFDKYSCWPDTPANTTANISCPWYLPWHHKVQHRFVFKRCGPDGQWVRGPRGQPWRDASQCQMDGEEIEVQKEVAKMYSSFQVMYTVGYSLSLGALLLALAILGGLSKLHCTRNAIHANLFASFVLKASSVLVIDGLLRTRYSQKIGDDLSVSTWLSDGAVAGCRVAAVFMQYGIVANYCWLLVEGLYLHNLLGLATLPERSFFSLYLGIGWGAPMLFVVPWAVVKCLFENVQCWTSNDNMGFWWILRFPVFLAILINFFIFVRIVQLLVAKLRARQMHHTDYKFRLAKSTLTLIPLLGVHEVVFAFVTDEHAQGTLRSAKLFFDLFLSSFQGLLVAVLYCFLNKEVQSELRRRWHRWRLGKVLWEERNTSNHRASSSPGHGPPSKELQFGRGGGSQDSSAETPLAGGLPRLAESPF
Nature of the test: Glucagon cAMP inhibition assay (Cisbio cAMP Dynamic 2 HTRF). It is filed as cell-based. The procedure: Glucagon cAMP Inhibition Assay
Downstream secondary messenger cAMP induced by glucagon was detected by Cisbio cAMP Dynamic 2 kit. Testing compounds were each prepared as a dimethyl sulfoxide (DMSO) solution at the concentration of 10 mM. To evaluate the potency of compounds in inhibiting the cAMP production, glucagon receptor (GCGR) overexpressed CHO-K1 cells or human primary hepatocytes were treated with compounds with a serial dilution. The cells were re-suspended in Hank's Balanced Salt solution (HBSS) contained 0.1% (w/v) bovine serum albumin and 800 nM 3-isobutyl-1-methylxanthine (IBMX) and seeded into low volume, 384 wells white plate. The diluted compounds were then added into the plate for 30 minutes pre-incubation where the final DMSO concentration was 1%. The cells were stimulated with glucagon at the concentration equaled to EC50 (an indicium of the concentration of a drug that gives half-maximal response) for 30 minutes at room temperature. After incubation, lysis buffer contain cAMP antibody and fluorescence acceptor were added into each well for additional 60 minutes incubation. Results were recorded by Molecular Devices SpectraMax Paradigm with the HTRF Detection Cartridges and the IC50 value of each compound in inhibiting the cAMP production was calculated with non-linear regression based on the amount of cAMP production.
(In general: Time-resolved FRET reads energy transfer from a long-lived donor to a nearby acceptor.)

Where [2] appears, read: competition with I125-glucagon 0.0625 nM, membrane fractions of GCGR overexpressed CHO-K1 cells.
Where [3] appears, read: inhibition of glucagon (EC50 concentration) induced cAMP production.

Like-named read-outs stand apart in the source and are kept apart here. A value given as a limit tells only on which side of the number the result lay.

T1 sequence (P47871 26-477): as above

In general, IC50 refers to the concentration needed to halve the response being measured. Compound `O=C(O)CCNC(=O)c1ccc(NC(Cc2ccccc2)C(=O)Nc2ccc(C(F)(F)F)cc2)cc1` (stereo in doubt) [Compound 24-4, (S)-3-(4-((1-oxo-3-phenyl-1-((4-(trifluoromethyl)phenyl)amino)propan-2-yl)amino)benzamido)propanoic Acid] came in with a concentration for half-maximal inhibition (IC50) at glucagon receptor (GCGR) of 6020 nM. Further, in test [1] (uM), the “IC50 cAMP” value was more than 10 µM.
On to `CCOC(=O)CCNC(=O)c1ccc(N[C@H](COc2ccc(-c3cc4ccccc4o3)cc2)C(C)C)cc1` [Compound 1-1, Ethyl(S)-3-(4-((1-(4-(benzofuran-2-yl)phenoxy)-3-methylbutan-2-yl)amino)benzamido) propanoate], for which the IC50 at glucagon receptor (GCGR) (setting [2]) is 803 nM. Further, in test [1] (setting [3]), the “IC50 cAMP” value worked out at 1.177 µM.
As for `CC(C)[C@@H](COc1ccc(-c2cc3ccccc3o2)cc1)Nc1ccc(C(=O)NCCC(=O)O)cc1` [Compound 1-2, (S)-3-(4-((1-(4-(benzofuran-2-yl)phenoxy)-3-methylbutan-2-yl)amino)benzamido)propanoic Acid], the IC50 at glucagon receptor (GCGR) (setting [2]) is 207 nM. For the same compound, the “IC50 cAMP” value in test [1] (setting [3]) amounted to 0.1956 µM.
Taken in the same sequence, the figures for `CC[C@H](C)[C@@H](COc1ccc(-c2ccc(C(C)(C)C)cc2)cc1)Nc1ccc(C(=O)NCCC(=O)O)cc1` [Compound 1-3, 3-(4-(((2S,3S)-1-((4′-(tert-butyl)-[1,1′-biphenyl]-4-yl)oxy)-3-methylpentan-2-yl)amino)benzamido)propanoic Acid] were 319 nM and 0.8844 µM.
On glucagon receptor (GCGR) (setting [2]), `CC[C@H](C)[C@@H](COc1ccc(-c2cc3ccccc3o2)cc1)Nc1ccc(C(=O)NCCC(=O)O)cc1` [Compound 1-4, 3-(4-(((2S,3S)-1-(4-(benzofuran-2-yl)phenoxy)-3-methylpentan-2-yl)amino)benzamido)propanoic Acid] gave an IC50 of 184 nM. Moreover, in test [1] (setting [3]), the “IC50 cAMP” value was found to be 0.528 µM.
Taken in the same sequence, the figures for `CCC(C)[C@@H](COc1ccc(-c2ccc(C(F)(F)F)cc2)cc1)Nc1ccc(C(=O)NCCC(=O)O)cc1` (stereo partly drawn) [Compound 1-5, 3-(4-(((2S)-3-methyl-1-((4′-(trifluoromethyl)-[1,1′-biphenyl]-4-yl)oxy)pentan-2-yl)amino)benzamido)propanoic Acid] were 213 nM and 0.839 µM.
The matching figures for `CC[C@H](C)[C@@H](COc1ccc(-c2ccc(OC(F)(F)F)cc2)cc1)Nc1ccc(C(=O)NCCC(=O)O)cc1` [Compound 1-6, 3-(4-(((2S,3S)-3-methyl-1-((4′-(trifluoromethoxy)-[1,1′-biphenyl]-4-yl)oxy)pentan-2-yl)amino)benzamido)propanoic Acid]: 228 nM and 1.078 µM.
The matching figures for `CC[C@H](C)[C@@H](COc1ccc(-c2ccc(Cl)cc2Cl)cc1)Nc1ccc(C(=O)NCCC(=O)O)cc1` [Compound 1-7, 3-(4-(((2S,3S)-1-((2′,4′-dichloro-[1,1′-biphenyl]-4-yl)oxy)-3-methylpentan-2-yl)amino)benzamido)propanoic Acid]: 139 nM and 0.4948 µM.
On to `CC[C@H](C)[C@@H](COc1ccc(-c2cc3ccccc3o2)cc1)Nc1ccc(C(=O)NCc2nnn[nH]2)cc1` [Compound 1-8], for which the IC50 on glucagon receptor (GCGR) (setting [2]) was found to be 98 nM. Further, the “IC50 cAMP” value in test [1] (setting [3]) turned out to be 3.305 µM.
Taken in the same sequence, the figures for `CC[C@H](C)[C@@H](COc1ccc(-c2cc3ccccc3o2)cc1)Nc1ccc(C(=O)NC[C@@H](O)C(=O)O)cc1` [Compound 1-9, (R)-3-(4-(((2S,3S)-1-(4-(benzofuran-2-yl)phenoxy)-3-methylpentan-2-yl)amino)benzamido)-2-hydroxypropanoic Acid] were 260 nM and 3.6 µM.
Taken in the same sequence, the figures for `CCCC[C@@H](COc1ccc(-c2cc3ccccc3o2)cc1)Nc1ccc(C(=O)NCCC(=O)O)cc1` [Compound 1-10, (S)-3-(4-((1-(4-(benzofuran-2-yl)phenoxy)hexan-2-yl)amino)benzamido) propanoic Acid] were 122 nM and 0.6298 µM.
On glucagon receptor (GCGR) (setting [2]), `CCCC[C@@H](COc1ccc(-c2ccc(C(C)(C)C)cc2)cc1)Nc1ccc(C(=O)NCCC(=O)O)cc1` [Compound 1-11, (S)-3-(4-((1-((4′-(tert-butyl)-[1,1′-biphenyl]-4-yl)oxy)hexan-2-yl)amino)benzamido)propanoic Acid] had an IC50 of 150 nM. Further, in test [1] (setting [3]), the “IC50 cAMP” value came to 0.3203 µM.
Taken in the same sequence, the figures for `CC(C)[C@@H](COc1ccc(-c2ccc(N(C)C)cc2)cc1)Nc1ccc(C(=O)NCCC(=O)O)cc1` [Compound 1-12, (S)-3-(4-((1-((4′-(dimethylamino)-[1,1′-biphenyl]-4-yl)oxy)-3-methylbutan-2-yl)amino)benzamido)propanoic Acid] were 224 nM and 0.4143 µM.
In the case of `CC[C@H](C)[C@@H](COc1ccc(-c2ccc(Cl)cc2Cl)cc1)Nc1ccc(C(=O)NCc2nnn[nH]2)cc1` [Compound 1-13, N-((1H-tetrazol-5-yl)methyl)-4-(((2S,3S)-1-((2′,4′-dichloro-[1,1′-biphenyl]-4-yl)oxy)-3-methylpentan-2-yl)amino)benzamide], the IC50 on glucagon receptor (GCGR) (setting [2]) came to 141 nM. Also, the “IC50 cAMP” value in test [1] (setting [3]) was found to be 1.73 µM.
Regarding `CC[C@H](C)[C@@H](COc1ccc(-c2ccc(F)cc2F)cc1)Nc1ccc(C(=O)NCCC(=O)O)cc1` [Compound 1-26], in test [1] (setting [3]), the “IC50 cAMP” value worked out at 0.213 µM.
Take `CC[C@H](C)[C@@H](COc1ccc(-c2nnc(C(C)(C)C)o2)c(OC)c1)Nc1ccc(C(=O)NCCC(=O)O)cc1` [Compound 13-13, 3-(4-(((2S,3S)-1-(4-(5-(tert-butyl)-1,3,4-oxadiazol-2-yl)-3-methoxyphenoxy)-3-methylpentan-2-yl)amino)benzamido)propanoic Acid]: at glucagon receptor (GCGR) (setting [2]), the 50% inhibitory concentration (IC50) came to 883 nM. This lies in the sub-micromolar range.
Take `CCC(C)[C@@H](COc1nnc(-c2ccc(OC(F)(F)F)cc2)o1)Nc1ccc(C(=O)NCCC(=O)O)cc1` (stereo partly drawn) [Compound 22-8, 3-(4-(((2S)-3-methyl-1-((5-(4-(trifluoromethoxy)phenyl)-1,3,4-oxadiazol-2-yl)oxy)pentan-2-yl)amino)benzamido)propanoic Acid]: the half-inhibitory concentration (IC50) on glucagon receptor (GCGR) is more than 30000 nM.
Take `CCC(C)[C@@H](COc1nnc(-c2ccc(C(C)(C)C)cc2)o1)Nc1ccc(C(=O)NCCC(=O)O)cc1` (stereo partly drawn) [Compound 22-9, 3-(4-(((2S)-1-((5-(4-(tert-butyl)phenyl)-1,3,4-oxadiazol-2-yl)oxy)-3-methylpentan-2-yl)amino)benzamido)propanoic Acid]: the IC50 on glucagon receptor (GCGR) is more than 30000 nM.
Consider `Cc1cc(C)c(-c2ccc(C[C@H](Nc3ccc(C(=O)NCCS(=O)(=O)O)cc3)C(=O)Nc3ccc(C(C)(C)C)cc3)cc2)c(C)c1` [Compound 23-26, (S)-2-(4-((1-((4-(tert-butyl)phenyl)amino)-1-oxo-3-(2′,4′,6′-trimethyl-[1,1′-biphenyl]-4-yl)propan-2-yl)amino)benzamido)ethane-1-sulfonic Acid], for which, in test [1], the “IC50 cAMP” value came to 39.3 µM.
Still for that read-out and setting: the result for `CCOC(=O)CCNC(=O)c1ccc(N[C@@H](Cc2c[nH]c3ccccc23)C(=O)Nc2ccc(-c3cc4ccccc4o3)cc2)cc1` [Compound 23-27, Ethyl (S)-3-(4-((1-((4-(benzofuran-2-yl)phenyl)amino)-3-(1H-indol-3-yl)-1-oxopropan-2-yl)amino)benzamido)propanoate] reads 34.6 µM.
As to `CCOC(=O)CCNC(=O)c1ccc(N[C@@H](Cc2cccc3ccccc23)C(=O)NC(C)C)cc1` [Compound 24-11, Ethyl (S)-3-(4-((1-(isopropylamino)-3-(naphthalen-1-yl)-1-oxopropan-2-yl)amino)benzamido)propanoate], the “IC50 cAMP” value in test [1] (uM) is more than 10 µM.
For `CC(C)NC(=O)[C@H](Cc1cccc2ccccc12)Nc1ccc(C(=O)NCCC(=O)O)cc1` [Compound 24-12, (S)-3-(4-((1-(isopropylamino)-3-(naphthalen-1-yl)-1-oxopropan-2-yl)amino)benzamido)propanoic Acid], the “IC50 cAMP” value in test [1] (uM) was more than 10 µM.
As to `CCOC(=O)CCNC(=O)c1ccc(N[C@@H](Cc2ccc3ccccc3c2)C(=O)NC(C)C)cc1` [Compound 24-13, Ethyl (S)-3-(4-((1-(isopropylamino)-3-(naphthalen-2-yl)-1-oxopropan-2-yl)amino)benzamido)propanoate], the “IC50 cAMP” value in test [1] (uM) is more than 10 µM.
Still for that read-out and setting: the result for `CC(C)NC(=O)[C@H](Cc1ccc2ccccc2c1)Nc1ccc(C(=O)NCCC(=O)O)cc1` [Compound 24-14, (S)-3-(4-((1-(isopropylamino)-3-(naphthalen-2-yl)-1-oxopropan-2-yl)amino)benzamido)propanoic Acid] reads more than 10 µM.
